One compound from paper PMC8845285, “Serotoninergic receptor ligands improve Tamoxifen effectiveness on breast cancer cells” (BMC Cancer, 2022) can be followed below.

What all share (format): cell-based, human
In test [1] the test system is Tamoxifen-cultured MCF7 cells. As to the kind of experiment: Tamoxifen-cultured MCF7 cell viability, sulforhodamine B assay. As to conditions: Tamoxifen 5 μM, E2 100 nM, 72 h. The procedure: (§1) Cells were fixed with 50% trichloroacetic acid for at least 2 h at 4 °C, washed with distilled and de-ionized water, air-dryed and stained 30 min with 0.4% sulforhodamine B in 1% acetic acid. Unbound dye was removed and 10 mM tris-HCl solution (pH 7.5) was added to dissolve the protein-bound dye. Cell survival was assessed by optical density determination at 510 nm using a microplate reader.
To further investigate the effect of SER79 and SER68 on Tamoxifen responsiveness and CTGF expression in MCF7 cells, we obtained - by a continuous treatment of 10 days with 1 μM Tamoxifen – a cellular model less sensitive to the drug (Tamoxifen-cultured MCF7). We observed that 20 μM SER79, 20 μM and 40 μM SER68, while not 5 μM SER79, reduced viability of Tamoxifen-cultured MCF7 cells by about 40% (adjp<0.01; Fig. 8a). […] However, in the presence of 20 μM SER79, 20 μM and 40 μM SER68, Tamoxifen elicited a further 40% reduction of viability, similar to that achieved in Tamoxifen-responsive MCF7 cells (adjp<0.01; Fig. 8b).
Fig. 8 Effect of SER79 and SER68 on Tamoxifen-cultured MCF7 cells. MCF7 cells were cultured in presence of Tamoxifen (1 μM) for 10 days. Estrogen-starved MCF7 and Tamoxifen-cultured MCF7 cells (48 h) were (a-c) treated with SER79 (20 μM, 5 μM) or SER68 (40 μ, 20 μM), (b) treated with Tamoxifen (5 μM) in presence of SER79 (20 μM, 5 μM) or SER68 (40 μM, 20 μM). All treatments were carried out in presence of E2 (100 nM) for 72 h. As positive control, the cells were treated with (a-c) E2 alone or (b) E2 in absence or in presence of SER (as indicated, dotted line). a,b Cell viability was assessed by sulforhodamine B assay (see Methods). The results were reported as percentage of viable cells compared to positive control, considered as maximum viability (100%). c mRNA levels of CTGF were determined by qPCR (see Methods and Table 1). Data were normalized on Ribosomal Protein S23 (Rps23) gene as internal standard and reported as CTGF mRNA levels in Tamoxifen-cultured MCF7 relative to those in MCF7 cells (dotted line). a-c Graphs represent the mean ± SD of at least three independent triplicate experiments. * denotes statistically significant values compared with (a,b) positive control (*adjp<0.05, ** adjp<0.01) or (c) MCF7 cells (*pval<0.05); # denotes statistically significant values compared with (b) cells treated with Tamoxifen in absence of SER or (c) untreated Tamoxifen-cultured MCF7 cells (#pval<0.01, ##pval<0.0001)
A general note: The SRB assay estimates cell density from bound dye.

Test [2] has as its system MCF7-R cells. As to the kind of experiment: Tamoxifen-resistant MCF7-R cell viability, sulforhodamine B assay. The settings on record: up to 6 μM, E2 100 nM, 72 h. The procedure:
as §1
MCF7 cells were cultured for 4 months in phenol-red free medium supplemented with 10% (C/S) FBS and continuously exposed to Tamoxifen (1 μM). […] To further validate the degree of drug resistance, the expression levels of ABCC1, ABCG1 and ABCG2 – members of ABC transporter family known as involved in multi-drug resistance – were evaluated by Quantitative Real-Time PCR (qPCR; see below) upon cell treatment with 5 μM Tamoxifen for 72 h.
Fig. 9 Effect of SER79 and SER68 on Tamoxifen-resistant (MCF7-R) cells. a Estrogen starved MCF7-R were treated with SER79 (20 μM, 5 μM) or SER68 (20 μM) in presence of E2 (100 nM). b Estrogen-starved MCF7-R were treated with Tamoxifen (5 μM) in presence of E2 and SER79 (20 μM) or SER68 (20 μM). a,b As positive control, the cells were treated with E2 alone, in absence or in presence of SER (dotted line). After 72 h, cell viability was assessed by sulforhodamine B assay (see Methods). The results were reported as percentage of viable cells compared to positive control, considered as maximum viability (100%). c mRNA levels of CTGF were determined by qPCR (see Methods and Table 1) in MCF7-R cells upon treatment with SER68 (20 μM). Data were normalized on Ribosomal Protein S23 (Rps23) gene as internal standard and reported as CTGF mRNA levels in MCF7-R. a-c Graphs represent the mean ± SD of at least three independent triplicate experiments. * denotes statistically significant values compared with (b) positive control or (c) MCF7 cells (*adjp<0.05; **adjp<0.001). # denotes statistically significant values compared with untreated MCF7-R (#pval<0.05) […]
Figure S3. Establishment of MCF7 Tamoxifen re sista n t(M C F7-R) cells. MCF7 cells were cultured with Tamoxifen (1µM), in absence of E2, for 4 months (M C F7-R). (a-b) MCF7 and MCF7-R cells were treated with in c re a s in gconcentration of Tamoxifen […]
As positive control, cells were treated with E2 alone. Cell viability was measured by sulforhodamine B assay (se e Methods). The re su ltswere re p o rte das percentage of viable cells compared to untreated cells, considered as maximum viability (100%). […]
(a ) * denotes statistically significant values compared with untreated cells […]
(§2) (1 picture or pasted object on this page, not shown here)

The subject of test [3] is ABCC1, ABCG1 and ABCG2. Put plainly: ABC transporter mRNA levels in MCF7-R cells, qPCR. As to conditions: Tamoxifen 5 μM, E2 100 nM, 72 h. As to the method:
Total RNA was isolated from cells, quantified (NanoDrop spectrophotometer, Life Technologies, Carlsbad, CA, USA) and reverse transcribed according to the manufacturer’s instructions. Semiquantitative PCR and qPCR assays were performed according to manufacturer’s instructions for Bio-Rad T100 thermal cycler and CFX Connect Real Time system (Biorad, Hercules, CA, USA), respectively. Relative gene expression quantification was measured by 2^−ΔΔCt method normalizing for the reference sample using Rps23 (Ribosomal Protein S23) as housekeeping gene.
Cell viability was measured
as §2
In general terms: Real-time PCR tracks product formation cycle by cycle.

Molecules are shown by their SMILES.

Consider `CC/C(=C(\c1ccccc1)c1ccc(OCCN(C)C)cc1)c1ccccc1` [Tamoxifen], for which the “effect of Tamoxifen treatment alone on viability of Tamoxifen-cultured MCF7 cells” value in test [1] is reported as “did not affect viability”. The “effect of Tamoxifen on MCF7-R cell viability” value in test [2] is given as “did not reduce”. The “mRNA levels of ABCC1, ABCG1 and ABCG2 in Tamoxifen-treated MCF7-R cells” value in test [3] was “higher”.
